The target of one experiment is T1, AXL (Homo sapiens, UniProt P30530).
T1 construct: endogenous in cells; host or cells: A-172 glioblastoma cells (ATCC #CRL-1620)
T1 sequence (P30530 26-894): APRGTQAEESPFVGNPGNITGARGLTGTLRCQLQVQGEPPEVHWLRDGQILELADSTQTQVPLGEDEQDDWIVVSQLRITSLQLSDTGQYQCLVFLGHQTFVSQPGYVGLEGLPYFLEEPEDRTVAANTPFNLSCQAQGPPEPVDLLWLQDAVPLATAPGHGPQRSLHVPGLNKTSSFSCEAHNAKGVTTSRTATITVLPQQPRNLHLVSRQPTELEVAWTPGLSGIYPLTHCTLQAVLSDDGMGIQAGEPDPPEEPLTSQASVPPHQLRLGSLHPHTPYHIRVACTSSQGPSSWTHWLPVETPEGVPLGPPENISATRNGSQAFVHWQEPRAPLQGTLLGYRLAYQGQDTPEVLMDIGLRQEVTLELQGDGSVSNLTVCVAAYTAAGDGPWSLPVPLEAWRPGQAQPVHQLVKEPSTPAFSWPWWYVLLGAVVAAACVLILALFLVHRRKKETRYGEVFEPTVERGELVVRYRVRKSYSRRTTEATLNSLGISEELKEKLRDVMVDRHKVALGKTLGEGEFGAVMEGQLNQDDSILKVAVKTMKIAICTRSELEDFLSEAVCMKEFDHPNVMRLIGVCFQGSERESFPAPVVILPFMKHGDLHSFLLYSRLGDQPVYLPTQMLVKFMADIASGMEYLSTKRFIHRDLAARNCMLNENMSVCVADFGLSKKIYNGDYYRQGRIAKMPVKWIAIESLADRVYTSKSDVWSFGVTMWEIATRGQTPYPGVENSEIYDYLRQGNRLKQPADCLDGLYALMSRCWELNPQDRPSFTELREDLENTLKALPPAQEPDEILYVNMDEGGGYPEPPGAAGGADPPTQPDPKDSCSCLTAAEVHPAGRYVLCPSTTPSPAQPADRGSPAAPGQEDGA
The experiment is described as follows: AXL autophosphorylation ELISA in A-172 cells. The experiment is classed as cell-based. To be noted: cellular activity, Gas6-stimulated, phospho-AXL ELISA. Summed up:
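Serum-starved (24 h) A-172 glioblastoma cells got an 8-point compound series (0.3% DMSO) for 1 h, then 1 μg/mL human Gas6 for 15 min. Lysate phospho-AXL quantified by ELISA against phospho-AXL standard, normalized to DMSO and reference-inhibitor controls; IC50 by 4-parameter logistic fit.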

In another experiment the target is Met (Homo sapiens, UniProt P08581). Kind of experiment: Human Met kinase assay (33P-phosphoryl transfer radiometric, KinaseProfiler). On the set-up: Human Met (residues R974-S1390 with A1209G and V1290L, 3.4 nM); purchased Eurofins Pharma Discovery Services UK Limited (KinaseProfiler service). The following applies: biochemical activity; 10 μM ATP; read-out: c-Met IC50. As for the experimental part:
Kinase activity and compound inhibition were investigated using the ^33P-Phosphoryl transfer radiometric kinase assay, performed using the KinaseProfiler™ service of Eurofins Pharma Discovery Services UK Limited. Dose-response experiments were performed using nine compound concentrations in a 96-well microtiter plate. For each assay, all compounds were prepared to a 50× final assay concentration (50 μM) in 100% DMSO, then diluted in a half-log series, with the final top concentration at 1 μM. This working stock of the compound was added to the assay well as the first component in the reaction, followed by the remaining components as detailed in the following assay protocols below. The positive control wells (100% kinase activity) contain all components of the reaction including 2% DMSO (control for solvent effects), except the compound of interest. Blank wells contain all components of the reaction, with the reference inhibitor, staurosporine. This reference compound was used to abolish kinase activity and generated the 0% kinase activity base-line. IC50 values were calculated by nonlinear regression analysis using the sigmoidal dose-response (variable slope) curve fit on XLFit version 5.3 (ID Business Solutions).
Human Met (residues R974-S1390 with A1209G and V1290L, 3.4 nM) was incubated with 8 mM MOPS pH 7.0, 0.2 mM EDTA, 250 μM KKKGQEEEYVFIE, 1 mM sodium orthovanadate, 5 mM […], 10 mM magnesium acetate, and 10 μM [γ-^33P-ATP]. The reaction was initiated by the addition of the Mg/ATP mix. After incubation for 40 minutes at room temperature, the reaction was stopped by the addition of phosphoric acid to a concentration of 0.5%. A reaction aliquot of 10 μL was then spotted onto a P30 filtermat and washed four times for 4 minutes in 0.425% phosphoric acid and once in methanol prior to drying and scintillation counting. Incorporated ^33P was measured using the Wallac Microbeta scintillation counter (Perkin Elmer).

The structures appear in SMILES notation.

Sequence of Met (P08581 974-1390): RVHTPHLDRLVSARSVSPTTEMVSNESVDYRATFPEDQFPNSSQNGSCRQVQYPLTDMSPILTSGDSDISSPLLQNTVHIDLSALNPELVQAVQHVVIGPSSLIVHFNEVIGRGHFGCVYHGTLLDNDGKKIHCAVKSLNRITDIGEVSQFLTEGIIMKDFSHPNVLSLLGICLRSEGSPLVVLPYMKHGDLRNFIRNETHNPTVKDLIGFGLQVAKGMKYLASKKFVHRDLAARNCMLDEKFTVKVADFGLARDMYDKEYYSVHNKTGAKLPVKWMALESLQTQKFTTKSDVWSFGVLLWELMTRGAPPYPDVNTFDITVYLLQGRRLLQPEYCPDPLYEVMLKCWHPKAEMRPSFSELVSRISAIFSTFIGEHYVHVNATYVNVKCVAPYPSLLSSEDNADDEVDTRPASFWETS

In general, IC50 refers to the concentration at which inhibition is half-maximal. For `CC1Cc2cc(F)ccc2N1C(=O)C1(C(=O)Nc2ccc(Oc3ccnc4cc(-c5cnn(C)c5)ccc34)cc2)CC1` (centres unmarked) [Compound 80, 1-(5-Fluoro-2-methyl-2,3-dihydroindole-1-carbonyl)-N-[4-[7-(1-methylpyrazol-4-yl)quinolin-4-yl]oxyphenyl]cyclopropane-1-carboxamide], the IC50 against AXL and on Met was 10 to 100 nM in each case.
Take `COc1cc2c(Oc3ccc(NC(=O)C4(C(=O)Nc5ccc(F)cc5)CC4)cc3)ccnc2cc1-c1cnn(C)c1` [Compound 76, 1-N′-(4-Fluorophenyl)-1-N-[4-[6-methoxy-7-(1-methylpyrazol-4-yl)quinolin-4-yl]oxyphenyl]cyclopropane-1,1-dicarboxamide]: the IC50 at AXL and at Met was no more than 10 nM throughout.
For `O=C(Nc1ccc(F)cc1)C1(C(=O)Nc2ccc(Oc3ccnc4cc(-c5cnn(CCF)c5)ccc34)cc2)CC1` [Compound 14, 1-N-[4-[7-[1-(2-Fluoroethyl)pyrazol-4-yl]quinolin-4-yl]oxyphenyl]-1-N′-(4-fluorophenyl)cyclopropane-1,1-dicarboxamide], the IC50 at AXL and on Met was no more than 10 nM each time.
As to `Cc1noc(C)c1-c1ccc2c(Oc3ccc(NC(=O)C4(C(=O)Nc5ccc(F)cc5)CC4)cc3)ccnc2c1` [Compound 53, 1-N-[4-[7-(3,5-Dimethyl-1,2-oxazol-4-yl)quinolin-4-yl]oxyphenyl]-1-N′-(4-fluorophenyl)cyclopropane-1,1-dicarboxamide], the IC50 on AXL lay in the range of 100 to 300 nM; at Met it was 10 to 100 nM.
In the case of `Cc1cc2c(Oc3ccc(NC(=O)C4(C(=O)Nc5ccc(F)cc5)CC4)cc3)ccnc2cc1-c1cnn(C)c1` [Compound 78, 1-N′-(4-Fluorophenyl)-1-N-[4-[6-methyl-7-(1-methylpyrazol-4-yl)quinolin-4-yl]oxyphenyl]cyclopropane-1,1-dicarboxamide], the IC50 against AXL was 10 to 100 nM; on Met, no more than 10 nM.
For the compound `O=C(Nc1ccc(F)cc1)C1(C(=O)Nc2ccc(Oc3ccnc4cc(-c5nnco5)ccc34)cc2)CC1` [Compound 73, 1-N′-(4-Fluorophenyl)-1-N-[4-[7-(1,3,4-oxadiazol-2-yl)quinolin-4-yl]oxyphenyl]cyclopropane-1,1-dicarboxamide], the IC50 was 10 to 100 nM against AXL and no more than 10 nM at Met.
For `O=C(Nc1ccc(F)cc1)C1(C(=O)Nc2ccc(Oc3ccnc4cc(C5CCNC5)ccc34)cc2)CC1` (centres unmarked) [Compound 83, 1-N′-(4-Fluorophenyl)-1-N-[4-(7-pyrrolidin-3-ylquinolin-4-yl)oxyphenyl]cyclopropane-1,1-dicarboxamide], the IC50 is 100 to 300 nM on AXL and no more than 10 nM at Met.
The corresponding values for `C[Si](C)(C)C#Cc1ccc2c(Oc3ccc(NC(=O)C4(C(=O)Nc5ccc(F)cc5)CC4)cc3)ccnc2c1` [Compound 63, 1-N′-(4-Fluorophenyl)-1-N-[4-[7-(2-trimethylsilylethynyl)quinolin-4-yl]oxyphenyl]cyclopropane-1,1-dicarboxamide] are greater than 300 nM and 10 to 100 nM.
Taken in the same sequence, the figures for `Cn1ccnc1-c1ccc2c(Oc3ccc(NC(=O)C4(C(=O)Nc5ccc(F)cc5)CC4)cc3)ccnc2c1` [Compound 75, 1-N′-(4-Fluorophenyl)-1-N-[4-[7-(1-methylimidazol-2-yl)quinolin-4-yl]oxyphenyl]cyclopropane-1,1-dicarboxamide] were 10 to 100 nM and no more than 10 nM.
Turning to `O=C(Nc1ccc(F)cc1)C1(C(=O)Nc2ccc(Oc3ccnc4cc(-c5cn[nH]c5)ccc34)cc2)CC1` [Compound 67, 1-N′-(4-Fluorophenyl)-1-N-[4-[7-(1H-pyrazol-4-yl)quinolin-4-yl]oxyphenyl]cyclopropane-1,1-dicarboxamide], the IC50 against AXL and at Met was no more than 10 nM in each case.
On to `C#Cc1ccc2c(Oc3ccc(NC(=O)C4(C(=O)Nc5ccc(F)cc5)CC4)cc3)ccnc2c1` [Compound 64, 1-N-[4-(7-Ethynylquinolin-4-yl)oxyphenyl]-1-N′-(4-fluorophenyl)cyclopropane-1,1-dicarboxamide], for which the concentration for half-maximal inhibition (IC50) was greater than 300 nM against AXL and no more than 10 nM on Met.
The corresponding values for `Cn1cnc(-c2ccc3c(Oc4ccc(NC(=O)C5(C(=O)Nc6ccc(F)cc6)CC5)cc4)ccnc3c2)c1` [Compound 69, 1-N′-(4-Fluorophenyl)-1-N-[4-[7-(1-methylimidazol-4-yl)quinolin-4-yl]oxyphenyl]cyclopropane-1,1-dicarboxamide] are no more than 10 nM and no more than 10 nM.
The corresponding values for `O=C(Nc1ccc(F)cc1)C1(C(=O)Nc2ccc(Oc3ccnc4cc(-c5cnc[nH]5)ccc34)cc2)CC1` [Compound 72, 1-N′-(4-Fluorophenyl)-1-N-[4-[7-(1H-imidazol-5-yl)quinolin-4-yl]oxyphenyl]cyclopropane-1,1-dicarboxamide] are 10 to 100 nM and no more than 10 nM.
Taken in the same sequence, the figures for `O=C(Nc1ccc(F)cc1)C1(C(=O)Nc2ccc(Oc3ccnc4cc(-c5ccn(C(F)F)n5)ccc34)cc2)CC1` [Compound 84, 1-N-[4-[7-[1-(Difluoromethyl)pyrazol-3-yl]quinolin-4-yl]oxyphenyl]-1-N′-(4-fluorophenyl)cyclopropane-1,1-dicarboxamide] were 10 to 100 nM and 10 to 100 nM.
On to `O=C(Nc1ccc(F)cc1)C1(C(=O)Nc2ccc(Oc3ccnc4cc(-c5cnn(C6COC6)c5)ccc34)cc2)CC1` [Compound 24, 1-N′-(4-Fluorophenyl)-1-N-[4-[7-[1-(oxetan-3-yl)pyrazol-4-yl]quinolin-4-yl]oxyphenyl]cyclopropane-1,1-dicarboxamide], for which the IC50 against AXL and at Met was no more than 10 nM throughout.
`Cn1cc(-c2ccc3c(Oc4ccc(NC(=O)C5(C(=O)N6CCc7cc(F)ccc76)CC5)cc4)ccnc3c2)cn1` [Compound 81, 1-(5-Fluoro-2,3-dihydroindole-1-carbonyl)-N-[4-[7-(1-methylpyrazol-4-yl)quinolin-4-yl]oxyphenyl]cyclopropane-1-carboxamide]: the results for the IC50 against AXL and at Met were 10 to 100 nM and no more than 10 nM, respectively.
The corresponding values for `O=C(Nc1ccc(F)cc1)C1(C(=O)Nc2ccc(Oc3ccnc4cc(-c5cnn(CC(F)F)c5)ccc34)cc2)CC1` [Compound 15, 1-N-[4-[7-[1-(2,2-Difluoroethyl)pyrazol-4-yl]quinolin-4-yl]oxyphenyl]-1-N′-(4-fluorophenyl)cyclopropane-1,1-dicarboxamide] are no more than 10 nM and no more than 10 nM.
In the case of `Cn1nccc1-c1ccc2c(Oc3ccc(NC(=O)C4(C(=O)Nc5ccc(F)cc5)CC4)cc3)ccnc2c1` [Compound 54, 1-N′-(4-Fluorophenyl)-1-N-[4-[7-(2-methylpyrazol-3-yl)quinolin-4-yl]oxyphenyl]cyclopropane-1,1-dicarboxamide], the IC50 against AXL was 10 to 100 nM; on Met, no more than 10 nM.
The corresponding values for `O=C(Nc1ccc(F)cc1)C1(C(=O)Nc2ccc(Oc3ccnc4cc(-c5cnn(C6CCNCC6)c5)ccc34)cc2)CC1` [Compound 60, 1-N′-(4-Fluorophenyl)-1-N-[4-[7-(1-piperidin-4-ylpyrazol-4-yl)quinolin-4-yl]oxyphenyl]cyclopropane-1,1-dicarboxamide] are no more than 10 nM and no more than 10 nM.

The record behind these values is patent US12503438B2, “Compounds for the treatment of kinase-dependent disorders” (Exelixis, Inc., priority 2019, dated 2025).
